The values below come from patent US20240287022A1 (Merck Sharp & Dohme LLC, priority 2021, published 2024).

By EC50 is commonly meant the concentration that produces a half-maximal response.

The assay deals with recombinant IL4I1 (Homo sapiens (Human), UniProt Q96RQ9). The assay can be described thus: IL4I1 Enzymatic Assay (Amplex Red/HRP coupled H2O2 detection). The conditions noted are these: 1 nM IL4I1, 1 mM each Phe/Tyr/Trp, four-hour pre-incubation, 120 minutes reaction, top compound concentration of 10000 nM. The class given is biochemical. As to the method: Interleukin 4 inducible protein 1 (IL4I1) is an L-amino oxidase that catalyzes the oxidation of aromatic residues (Phe, Trp and Tyr): L-amino acid+H2O+O2→2-oxo acid+NH3+H2O2. Equal molar of H2O2 and the corresponding alpha-ketoacid are produced when IL4I1 and substrate are added. In this assay, the hydrogen peroxide generated by IL4I1 are then detected through a coupled reaction with Amplex Red (10-acetyl-3,7-dihydroxyphenoxazine) and […] (HRP) to produce Resorufin product that could be detected in the form of fluorescence signals. The assessment of the inhibitory effect of small molecules (EC50) on IL4I1 is measured by the effectiveness of the compounds to inhibit the production of H2O2.
Chain of recombinant IL4I1 (Q96RQ9 22-567): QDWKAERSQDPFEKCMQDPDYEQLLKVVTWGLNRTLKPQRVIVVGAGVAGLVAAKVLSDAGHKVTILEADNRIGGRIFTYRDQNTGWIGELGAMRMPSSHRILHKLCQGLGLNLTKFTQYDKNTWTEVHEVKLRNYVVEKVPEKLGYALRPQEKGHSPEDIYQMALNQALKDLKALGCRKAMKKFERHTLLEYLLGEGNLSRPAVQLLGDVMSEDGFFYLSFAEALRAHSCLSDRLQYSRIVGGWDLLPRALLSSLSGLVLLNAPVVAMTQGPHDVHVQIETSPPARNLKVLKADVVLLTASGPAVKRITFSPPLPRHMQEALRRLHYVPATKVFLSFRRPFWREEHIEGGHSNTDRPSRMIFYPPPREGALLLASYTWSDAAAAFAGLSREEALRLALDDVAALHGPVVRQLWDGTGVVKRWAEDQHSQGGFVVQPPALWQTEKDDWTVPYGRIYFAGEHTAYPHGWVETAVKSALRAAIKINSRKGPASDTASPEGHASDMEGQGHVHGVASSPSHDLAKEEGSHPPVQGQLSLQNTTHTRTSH
Using this assay, the potency (EC50) of each compound was determined from a ten-point (1:3 serial dilution; top compound concentration of 10000 nM) titration curve using the following outlined procedure. To each well of a black flat-bottom Greiner (Cat #781076) 384 well-plate, 25 nL of compound (0.1% DMSO in final assay volume of 25 μL) was dispensed, followed by the addition of 12.5 μL of 1× assay buffer (50 mM Hepes 7.0 and 0.005% Tween20 (Sigma, Cat #P8341; low peroxide grade)) containing 2 nM of recombinant IL4I1 (R&D Systems, Cat #5684-AO-020). Plates were placed in an ambient temperature humidified chamber for a four-hour pre-incubation with compound. Subsequently, each reaction was initiated by the addition of 12.5 μL 1× assay buffer containing 2 mM of each aromatic amino acids (Phe/Tyr/Trp), 0.1 mM Amplex Red and 2 U/mL of HRP. The final reaction in each well of 25 μL consists of 1 nM of IL4I1, 1 mM of each residues (Phe, Tyr and Trp), 0.05 mM Amplex Red and 1 U/mL of HRP. It should be noted that the concentrations of Amplex Red and HRP used here are in excess such that the conversion of H2O2 to Resorufin product occurs instantaneously and non-rate limiting. Reactions were allowed to proceed for 120 minutes followed by fluorescence readout on a Spectramax with the following set parameters: 544 nm excitation/590 nm emission, 570 nm cutoff (EnVision is an alternative reader). Dose-response curves were generated by plotting percent effect (% product conversion; Y-axis) vs. Log10 compound concentrations (X-axis). EC50 values were calculated using a non-linear regression, four-parameters sigmoidal dose-response model.
Consider `O=c1[nH]c2ccccc2cc1Cc1nnc(-c2cccc(C(F)(F)F)c2)o1` [Example 10, 3-((5-(3-(trifluoromethyl)phenyl)-1,3,4-oxadiazol-2-yl)methyl)quinolin-2(1H)-one], for which the EC50 came out at 7.6 nM.
On to `O=c1[nH]c2ccccc2cc1Cc1nnc(-c2cc(Cl)ccc2Cl)o1` [Example 11, 3-((5-(2,5-dichlorophenyl)-1,3,4-oxadiazol-2-yl)methyl)quinolin-2(1H)-one], for which the concentration for a half-maximal effect (EC50) amounted to 2.2 nM.
To `O=c1[nH]c2ccccc2cc1Cc1nnc(-c2cn3cccnc3n2)o1` [Example 12, 3-((5-(imidazo[1,2-a]pyrimidin-2-yl)-1,3,4-oxadiazol-2-yl)methyl)quinolin-2(1H)-one] belongs 429 nM.
To `O=c1[nH]c2ccccc2cc1Cc1nnc(-c2cn3ccsc3n2)o1` [Example 13, 3-((5-(imidazo[2,1-b]thiazol-6-yl)-1,3,4-oxadiazol-2-yl)methyl)quinolin-2(1H)-one] belongs 5.7 nM; to `Cc1onc(-c2nnc(Cc3cc4ccccc4[nH]c3=O)o2)c1C` [Example 14, 3-((5-(4,5-dimethylisoxazol-3-yl)-1,3,4-oxadiazol-2-yl)methyl)quinolin-2(1H)-one], 150 nM.
For `Cc1noc(C(C)C)c1-c1nnc(Cc2cc3ccccc3[nH]c2=O)o1` [Example 15, 3-((5-(5-isopropyl-3-methylisoxazol-4-yl)-1,3,4-oxadiazol-2-yl)methyl)quinolin-2(1H)-one], the EC50 amounted to 13.7 nM.
Consider `O=c1[nH]c2ccccc2cc1Cc1nnc(-c2ncn3ccccc23)o1` [Example 16, 3-((5-(imidazo[1,5-a]pyridin-1-yl)-1,3,4-oxadiazol-2-yl)methyl)quinolin-2(1H)-one], for which the half-maximal effective concentration (EC50) was determined as 10.2 nM.
As to `Cc1snnc1-c1nnc(Cc2cc3ccccc3[nH]c2=O)o1` [Example 17, 3-((5-(5-methyl-1,2,3-thiadiazol-4-yl)-1,3,4-oxadiazol-2-yl)methyl)quinolin-2(1H)-one], the EC50 was 169 nM.
In the case of `O=c1[nH]c2ccccc2cc1Cc1nnc(-c2c[nH]c(C3CC3)n2)o1` [Example 18, 3-((5-(2-cyclopropyl-1H-imidazol-4-yl)-1,3,4-oxadiazol-2-yl)methyl)quinolin-2(1H)-one], the EC50 is 23.4 nM.
Consider `Cc1nnc(Cc2cc3ccccc3[nH]c2=O)o1` [Example 20, 3-((5-methyl-1,3,4-oxadiazol-2-yl)methyl)quinolin-2(1H)-one], for which the EC50 was determined as 624 nM.
Take `O=c1[nH]c2ccccc2cc1Cc1nnc(C2CC3(CCC3)C2)o1` [Example 21, 3-((5-(spiro[3.3]heptan-2-yl)-1,3,4-oxadiazol-2-yl)methyl)quinolin-2(1H)-one]: the EC50 is 177 nM.
As to `Cc1cnc(-c2nnc(Cc3cc4ccccc4[nH]c3=O)o2)s1` [Example 22, 3-((5-(5-methylthiazol-2-yl)-1,3,4-oxadiazol-2-yl)methyl)quinolin-2(1H)-one], the EC50 turned out to be 203 nM.
Consider `O=c1[nH]c2ccccc2cc1Cc1nnc(Cc2ccc(Br)cc2)o1` [Example 23, 3-((5-(4-bromobenzyl)-1,3,4-oxadiazol-2-yl)methyl)quinolin-2(1H)-one], for which the EC50 is 126 nM.
For the compound `Cc1noc(C)c1Cc1nnc(Cc2cc3ccccc3[nH]c2=O)o1` [Example 24, 3-((5-((3,5-dimethylisoxazol-4-yl)methyl)-1,3,4-oxadiazol-2-yl)methyl)quinolin-2(1H)-one], the concentration giving a half-maximal response (EC50) amounted to 194 nM.
Turning to `O=c1[nH]c2ccccc2cc1Cc1nnc(Cc2cccnn2)o1` [Example 25], the 50% effective concentration (EC50) was 615 nM.
Regarding `O=c1[nH]c2ccccc2cc1Cc1nnc(-c2ccn3ncnc3c2)o1` [Example 26, 3-((5-([1,2,4]triazolo[1,5-a]pyridin-7-yl)-1,3,4-oxadiazol-2-yl)methyl)quinolin-2(1H)-one], the EC50 amounted to 314 nM.
In the case of `O=c1[nH]c2ccccc2cc1Cc1nnc(CC2CC2)o1` [Example 27, 3-((5-(cyclopropylmethyl)-1,3,4-oxadiazol-2-yl)methyl)quinolin-2(1H)-one], the EC50 stood at 70.3 nM.
In the case of `O=c1[nH]c2ccccc2cc1Cc1nnc(-c2cc(C(F)(F)F)[nH]n2)o1` [Example 28, 3-((5-(5-(trifluoromethyl)-1H-pyrazol-3-yl)-1,3,4-oxadiazol-2-yl)methyl)quinolin-2(1H)-one], the concentration for a half-maximal effect (EC50) worked out at 125 nM.
As to `Cc1oncc1-c1nnc(Cc2cc3ccccc3[nH]c2=O)o1` [Example 29, 3-((5-(5-methylisoxazol-4-yl)-1,3,4-oxadiazol-2-yl)methyl)quinolin-2(1H)-one], the EC50 came out at 547 nM.
To `O=c1[nH]c2ccccc2cc1Cc1nnc(-c2cnsc2)o1` [Example 30, 3-((5-(isothiazol-4-yl)-1,3,4-oxadiazol-2-yl)methyl)quinolin-2(1H)-one] belongs 696 nM; to `O=c1[nH]c2ccccc2cc1Cc1nnc(Cc2cnccn2)o1` [Example 31, 3-((5-(pyrazin-2-ylmethyl)-1,3,4-oxadiazol-2-yl)methyl)quinolin-2(1H)-one], 172 nM; to `O=c1[nH]c2ccccc2cc1Cc1nnc(C2CCC2)o1` [Example 32, 3-((5-cyclobutyl-1,3,4-oxadiazol-2-yl)methyl)quinolin-2(1H)-one], 168 nM.
To `N#Cc1ccc(F)c(-c2nnc(Cc3cc4ccccc4[nH]c3=O)o2)c1` [Example 33, 4-fluoro-3-(5-((2-oxo-1,2-dihydroquinolin-3-yl)methyl)-1,3,4-oxadiazol-2-yl)benzonitrile] belongs 65.3 nM.
With `O=c1[nH]c2ccccc2cc1Cc1nnc(C2(C(F)(F)F)CC2)o1` [Example 34, 3-((5-(1-(trifluoromethyl)cyclopropyl)-1,3,4-oxadiazol-2-yl)methyl)quinolin-2(1H)-one], the EC50 worked out at 653 nM.
`COc1ccc(C#N)cc1Cc1nnc(Cc2cc3ccccc3[nH]c2=O)o1` [Example 35, 4-methoxy-3-((5-((2-oxo-1,2-dihydroquinolin-3-yl)methyl)-1,3,4-oxadiazol-2-yl)methyl)benzonitrile]: the EC50 came out at 46.5 nM.
On to `Cc1nn(C)cc1-c1nnc(Cc2cc3ccccc3[nH]c2=O)o1` [Example 36, 3-((5-(1,3-dimethyl-1H-pyrazol-4-yl)-1,3,4-oxadiazol-2-yl)methyl)quinolin-2(1H)-one], for which the EC50 is 30.7 nM.
Turning to `O=C1CC(Cc2nnc(Cc3cc4ccccc4[nH]c3=O)o2)CC(=O)N1` [Example 37, 4-((5-((2-oxo-1,2-dihydroquinolin-3-yl)methyl)-1,3,4-oxadiazol-2-yl)methyl)piperidine-2,6-dione], the EC50 was 138 nM.
Turning to `O=c1[nH]c2ccccc2cc1Cc1nnc(-c2scnc2Cl)o1` [Example 38, 3-((5-(4-chlorothiazol-5-yl)-1,3,4-oxadiazol-2-yl)methyl)quinolin-2(1H)-one], the EC50 is 25.2 nM.
As for `O=c1[nH]c2ccccc2cc1Cc1nnc(-c2cc3c(s2)CCC3)o1` [Example 39, 3-((5-(5,6-dihydro-4H-cyclopenta[b]thiophen-2-yl)-1,3,4-oxadiazol-2-yl)methyl)quinolin-2(1H)-one], the EC50 was found to be 10.2 nM.
As to `O=c1[nH]c2ccccc2cc1Cc1nnc(-c2ncnc3c2CCC3)o1` [Example 40, 3-((5-(6,7-dihydro-5H-cyclopenta[d]pyrimidin-4-yl)-1,3,4-oxadiazol-2-yl)methyl)quinolin-2(1H)-one], the EC50 was 23.4 nM.
For the compound `N#Cc1cn[nH]c1-c1nnc(Cc2cc3ccccc3[nH]c2=O)o1` [Example 41, 5-(5-((2-oxo-1,2-dihydroquinolin-3-yl)methyl)-1,3,4-oxadiazol-2-yl)-1H-pyrazole-4-carbonitrile], the EC50 came to 13.4 nM.
In the case of `CC1(c2nnc(Cc3cc4ccccc4[nH]c3=O)o2)CC1` [Example 42, 3-((5-(1-methylcyclopropyl)-1,3,4-oxadiazol-2-yl)methyl)quinolin-2(1H)-one], the concentration for a half-maximal effect (EC50) is 21 nM.
To `COC(=O)NCc1nnc(Cc2cc3ccccc3[nH]c2=O)o1` [Example 43, methyl ((5-((2-oxo-1,2-dihydroquinolin-3-yl)methyl)-1,3,4-oxadiazol-2-yl)methyl)carbamate] belongs 588 nM.
In the case of `Cc1n[nH]c(-c2nnc(Cc3cc4ccccc4[nH]c3=O)o2)c1C` [Example 44, 3-((5-(3,4-dimethyl-1H-pyrazol-5-yl)-1,3,4-oxadiazol-2-yl)methyl)quinolin-2(1H)-one], the EC50 worked out at 7.7 nM.
Consider `CC1CC(=O)NC1c1ccc(Cc2cc3ccccc3[nH]c2=O)cc1` (centres unmarked) [Example 45, 3-(4-(3-methyl-5-oxopyrrolidin-2-yl)benzyl)quinolin-2(1H)-one], for which the EC50 is 6.7 nM.
